From BindingDB's records for PubMed 8558445 (Abbott Laboratories, 1996) come the findings set out here.

This experiment concerns the target Neuronal acetylcholine receptor subunit alpha-4 (Homo sapiens, UniProt P43681).

Chain of Neuronal acetylcholine receptor subunit alpha-4 (P43681 whole entry): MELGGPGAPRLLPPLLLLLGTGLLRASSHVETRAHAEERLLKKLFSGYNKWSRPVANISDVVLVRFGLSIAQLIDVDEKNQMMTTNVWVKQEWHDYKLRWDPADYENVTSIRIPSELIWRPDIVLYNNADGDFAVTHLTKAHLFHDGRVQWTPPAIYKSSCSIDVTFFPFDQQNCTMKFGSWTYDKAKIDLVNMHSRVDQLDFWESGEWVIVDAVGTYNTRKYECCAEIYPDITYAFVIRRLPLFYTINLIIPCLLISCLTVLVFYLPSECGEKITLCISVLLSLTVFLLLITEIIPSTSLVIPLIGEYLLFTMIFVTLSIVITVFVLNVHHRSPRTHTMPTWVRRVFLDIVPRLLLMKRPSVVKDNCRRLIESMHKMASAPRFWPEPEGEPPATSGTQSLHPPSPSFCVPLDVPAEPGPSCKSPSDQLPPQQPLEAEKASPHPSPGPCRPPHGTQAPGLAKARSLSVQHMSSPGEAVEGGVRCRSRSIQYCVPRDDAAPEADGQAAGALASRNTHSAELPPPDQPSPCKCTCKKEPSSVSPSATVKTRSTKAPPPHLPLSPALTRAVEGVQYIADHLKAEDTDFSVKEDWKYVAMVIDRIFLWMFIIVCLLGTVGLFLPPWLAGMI

`C[N+](C)(C)CCOC(N)=O` [(2-Hydroxyethyl)trimethyl ammonium chloride carbamate] showed an inhibition constant (Ki) of 68.2 nM.
Molecule `CCN1C[C@]2(COC(=O)c3ccccc3-n3c(O)cc(C)c3O)CC[C@H](OC)[C@]34C5C[C@@H]6[C@@H](OC)C[C@@](O)(C5[C@H]6OC)[C@@](O)(C13)[C@@H](OC)C24` (stereo partly drawn) [[(1S,4S,5R,6S,8R,9R,13S,16S,18S)-11-ethyl-8,9-dihydroxy-4,6,16,18-tetramethoxy-11-azahexacyclo[7.7.2.1^{2,5}.0^{1,10}.0^{3,8}.0^{13,17}]nonadecan-13-yl]methyl 2-[(3S)-3-methyl-2,5-dioxopyrrolidin-1-yl]benzoate] registered a Ki of 3210 nM.
With `C[N+](C)(C)CCCCCCCCCC[N+](C)(C)C` [Decamethonium Iodide] the figure was 962 nM.
With `CN1[C@@H](C[C@@H](O)c2ccccc2)CCC[C@H]1CC(=O)c1ccccc1` [Lobeline] the figure was 1.92 nM; with `C[N+](C)(C)CC[N+]1(C)Cc2c(Cl)c(Cl)c(Cl)c(Cl)c2C1` [CAS_6243], over 10000 nM; with `O=c1cccc2n1C[C@H]1CNC[C@H]2C1` [(1S,9R)-7,11-diazatricyclo[7.3.1.0~2,7~]trideca-2,4-dien-6-one], 0.43 nM.
With `c1cncc(C2CCCCN2)c1` (stereo not drawn) [(+-)-anabasine] the figure was 37.6 nM.
As to `CNC1(C)C2CCC(C2)C1(C)C` (stereo unspecified) [Methyl-(2,3,3-trimethyl-bicyclo[2.2.1]hept-2-yl)-amine(Mecamylamine)], the inhibitory constant (Ki) is over 10000 nM.
Regarding `C=C(C=O)C[C@H]1C[C@H](O)[C@]2(C)O[C@@H]3C[C@@H]4O[C@@H]5C[C@]6(C)O[C@]7(C)CC[C@@H]8O[C@@H]9C[C@]%10(C)O[C@@H]%11C(C)=CC(=O)O[C@H]%11C[C@H]%10O[C@H]9C[C@@H](C)[C@H]8O[C@H]7C[C@H]6O[C@@]5(C)C/C=C\[C@H]4O[C@H]3C[C@H]2O1`, the inhibition constant Ki amounted to 4730 nM.
With `C[N+]1(C)CCN(c2ccccc2)CC1` [DMPP] the figure was 10.7 nM; with `COc1cc2c3cc1Oc1cc(ccc1O)C[C@H]1c4c(cc(OC)c(O)c4Oc4ccc(cc4)C[C@@H]3N(C)CC2)CC[N+]1(C)C` [CAS_57-94-3], 3480 nM.
